Results from patent EP0633262A1, “Novel isatineoxime derivatives, their preparation and use” (NEUROSEARCH A/S, priority 1993, dated 1995).

Target: AMPA ((RS)-α-amino-3-hydroxy-5-methyl-4-isoxazolepropionic acid) binding site
Assay: AMPA binding assay (T. Honoré et al., Neuroscience Letters 54, 27-32 (1985))
Details: AMPA binding assay as described by T. Honoré et al.; read-out: IC₅₀
Method: In the same assay 8-Methyl-5,7,8,9-tetrahydro-1H-pyrrolo[3,2-h]isoquinoline-2,3-dione-3-oxime has an IC₅₀ of 0.2 µM.

Structure (SMILES) | IC50 [nM]
CN1CC=C2CC=C3C(=NO)C(=O)NC3=C2C1 [Example 7, 8-Methyl-5,7,8,9-tetrahydro-1H-pyrrolo[3,2-h]isoquinoline-2,3-dione-3-oxime] | 200
CN1CC=C2C(=C3NC(=O)C(=NO)C3=CC2S(=O)(=O)N(C)C)C1 (centres unmarked) [Example 6, 5-dimethylsulfamoyl-8-Methyl-5,7,8,9-tetrahydro-1H-pyrrolo[3,2-h]isoquinoline-2,3-dione-3-oxime] | 400
